According to US20220298541A1, “ASSAY FOR DETERMINING TARGET ENGAGEMENT IN REAL-TIME IN LIVING SYSTEMS” (Indian Institute of Science Education and Research, priority 2021, published 2022):
Residues, ends and D or L forms follow the SMILES beside them. *: point of attachment. Cbz = O=C(OCc1ccccc1)*; CH2F = FC*

What was measured:
[1] = molecular target: T1, caspase-3 (Homo sapiens, UniProt P42574); experiment: Screening protease inhibitors by BRET-approach of AbRGT in 96 well plates, caspase-3 RLuc transfected MCF-7 cells; assay type: cell-based
T1 construct: expressed in transfected cells; host or cells: MCF-7 (caspase-3 null); 2 in A4
T1 sequence (P42574 29-175 limits assumed): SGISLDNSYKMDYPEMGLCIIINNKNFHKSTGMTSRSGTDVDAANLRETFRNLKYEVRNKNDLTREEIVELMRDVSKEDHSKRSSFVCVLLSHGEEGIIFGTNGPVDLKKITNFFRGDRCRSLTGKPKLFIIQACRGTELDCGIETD
T1 sequence (P42574 176-277 limits assumed): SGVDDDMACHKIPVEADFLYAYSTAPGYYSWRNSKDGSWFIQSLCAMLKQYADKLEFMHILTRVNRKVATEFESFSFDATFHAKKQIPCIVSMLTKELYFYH
Excerpt: To show BRET-approach of AbRGT can be used for the high-throughput screening of inhibitors four different inhibitors; Z-VAD-FMK, C-inhibitor-II, E-64, and Q-VD-OPh were selected. Z-VAD-FMK, E-64, and Q-VD-OPh are irreversible inhibitors, while cpm-VAD-CHO is a reversible inhibitor. Z-VAD-FMK and Q-VD-OPh are widely known pan-caspase inhibitors that inhibit caspases with a different mechanism.
For inhibitor screening in a high-throughput format, caspase-3 RLuc transfected MCF-7 cells in 96 well plates were treated with STS (1 μM) for 4 h. Subsequently, after STS treatment, cells were incubated with Z-VAD-FMK or E64 or Q-VD-OPh inhibitors at two different concentrations (25 or 50 μM) for 1 h. Cells were then labeled with the Rh-VAD-FMK probe for 1 h, followed by the addition of coelenterazine h. Immediately after coelenterazine h addition, average radiance was recorded in the donor emission and the acceptor emission channel. The BRET measurements were done by calculating the mBRET values of each sample.

[2] = tested on: caspase-3; experiment: Quantification of caspase-3 activation in Caspase-3 RLuc expressing stable MCF-7 clone no. 2 by BRET-approach of AbRGT; assay type: cell-based, human
Protocol: Luciferase activity in the MCF7 Caspase3-GGS-RLuc8.6 clone no. 2, 3, 4 was measured by the addition of luciferase substrate, coelentrazine. Immediately after substrate addition, average radiance value was recorded and plotted as a bar graph (FIG. 4.8). […] The caspase-3 activity in the clone 2 cells further quantified by the BRET-approach of AbRGT. MCF-7 Caspase3-GGS-RLuc8.6 clone no. 2 cells were treated with increasing concentration (0, 50, 100, and 200 nM) of STS for 4 h. Subsequently, cells were incubated with Rh-VAD-FMK probe for 1 h followed by the addition of coelentrazine h. Immediately after substrate addition, average radiance was recorded at donor and acceptor filters and the mBRET values were calculated and plotted as a bar graph (FIG. 9).

[3] = tested on: caspase-3; experiment: Quantification of caspase-3 activation using BRET-approach of AbRGT in MCF-7 cells transiently transfected with pCMV-caspase-3-GGSRLuc 8.6; assay type: cell-based, human; conditions: STS 1 μM for 4 h; transiently transfected MCF-7 cells; Rh-VAD-FMK probe; untreated control 11±9.2
Protocol: To determine the specific caspase-3 activation, pCMV-caspase-3-GGSRLuc 8.6 plasmid was overexpressed in the MCF-7 cell line since it is caspase-3 null. The cells were subjected to treatment with Staurosporine (STS) (1 μM) for 4 h for the induction of apoptosis. […] Subsequently, cells were incubated with ABFP, Rh-VAD-FMK probe (BRET acceptor) for the labeling of PoI, and other proteases of the same family. The RLuc 8.6 substrate coelenterazine h was added to the cells, and the average radiance was recorded in the donor emission channel, RLuc 8.6 (520-540 nm), and the acceptor emission channel, rhodamine (580-600 nm) channel. The BRET measurements were done by calculating the mBRET values for the STS treated versus untreated samples using the following equation.^7 Here, acceptor and donor is represented by (A) and (D), respectively.

[4] = molecular target: T1, caspase-3; experiment: Effect of protease inhibitor on STS dependent caspase activation (BRET based AbRGT, Rh-VAD-FMK probe); assay type: cell-based; conditions: STS 0-4 μM followed by 1 h treatment with 50 μM Z-VAD-FMK; transiently transfected cells
Protocol: To check the effect of protease inhibitor Z-VAD-FMK on caspase activation, the pCMV-caspase-3-GGS-RLuc8.6 transiently transfected cells were treated with increasing concentration of STS(0-4 μM) followed by 1 h treatment of 50 μM of Z-VAD-FMK. The caspase3 activation was checked by BRET based AbRGT approach by using Rh-VAD-FMK probe. […] Thus we can use the BRET-approach of AbRGT to screen caspase inhibitors and activators. (FIG. 6).

Q: How did the “mBRET values as compared to Z-VAD-FMK inhibitor” value ([1]; STS 1 μM 4 h, then inhibitor 25 or 50 μM for 1 h) turn out when CC(C)[C@H](NC(=O)c1ccc2ccccc2n1)C(=O)N[C@@H](CC(=O)O)C(=O)COc1c(F)cccc1F [Q-VD-OPh] was run?
A: higher

Q: With CN[C@@H]1C[C@H]2O[C@@](C)([C@@H]1OC)n1c3ccccc3c3c4c(c5c6ccccc6n2c5c31)C(=O)NC4 [STS, Staurosporine] as the molecule, how does the “change of mBRET values with increasing STS concentration” value ([2]; 0, 50, 100 and 200 nM STS for 4 h, clone no. 2) read?
A: increase

Q: What about the “increase in mBRET as compared to the untreated cells” value ([2]; 200 nM STS for 4 h, MCF-7 Caspase3-GGS-RLuc8.6 clone no. 2) of the same molecule?
A: ~4 fold

Q: And the “mBRET value (indirect readout of specific caspase-3 activation)” value [3]?
A: 60±0.4

Q: What about the “mBRET value of the sample in the absence of inhibitor” value ([1]; STS 1 μM for 4 h, no inhibitor, 96 well plate) of the same molecule?
A: 60±0.4

Q: COC(=O)C[C@H](NC(=O)[C@H](C)NC(=O)[C@@H](NC(=O)OCc1ccccc1)C(C)C)C(=O)CF [Z-VAD-FMK] (Cbz-Val-Ala-Asp(OMe)-CH2F) was tested. Which “effect on caspase activation in presence of STS compared to only STS treated cells” value [4] did it give?
A: inhibits the caspase activation
